Values after ≈ are worked out from the molar mass of the structure shown. Like-named read-outs stand apart in the source and are kept apart here.
Legend:
[1] = test system: HepG2 hepatocellular liver carcinoma cells; experiment: MTT-based cytotoxicity assay, HepG2; type: cell-based; settings: Homo sapiens
Experimental: (§1) Briefly, cells (2,500/well) were seeded in 96-well plates and cultured for 24 h, followed by treatment with the target compounds for another 48 h. MTT ([…], 20 μL) was added per well and incubated for another 2.5 h at 37 °C. Then the supernatant fluid was removed and 150 μL/well DMSO was added for 15–20 min. The absorbance (OD) of each well was measured at 570 nm, using a SpectraMAX M5 microplate spectrophotometer (Molecular Devices, Sunnyvale, CA, USA). The IC50 Values are means ± SEM of three independent experiments.

[2] = test system: Hela Henrietta Lacks strain cancer cells; experiment: MTT-based cytotoxicity assay, Hela; type: cell-based; settings: Homo sapiens
Experimental: as §1

[3] = test system: Vero normal African green monkey kidney epithelial cells; experiment: MTT-based cytotoxicity assay, Vero; type: cell-based; settings: for IC50: Chlorocebus sabaeus
Experimental: as §1

[4] = test system: M. tuberculosis H37Rv (ATCC 27294); experiment: Antitubercular activity by microdilution method, M. tuberculosis H37Rv; type: cell-based; settings: Mycobacterium tuberculosis, 264 h, growth similar to well inoculated with 10 CFU, read after 11 days by visual investigation, three replicates
[5] = test system: SKOV-3 ovarian carcinoma cells; experiment: MTT-based cytotoxicity assay, SKOV-3; type: cell-based; settings: Homo sapiens
Experimental: as §1

[6] = test system: A549 lung adenocarcinoma epithelial cells; experiment: MTT-based cytotoxicity assay, A549; type: cell-based; settings: Homo sapiens
Experimental: as §1

[7] = test system: HCT116 colorectal carcinoma cells; experiment: MTT-based cytotoxicity assay, HCT116; type: cell-based; settings: Homo sapiens
Experimental: as §1

[8] = test system: A375 human melanoma cells; experiment: MTT-based cytotoxicity assay, A375; type: cell-based
Experimental: as §1

[9] = test system: six different tumor cell lines; experiment: MTT-based cytotoxicity assay, six cell lines stated together
Experimental: as §1

[10] = HepG2, MTT, 48 h treatment, means ± SEM of three independent experiments, read-out: IC50
[11] = Hela, MTT, 48 h treatment, means ± SEM of three independent experiments, read-out: IC50
[12] = Vero normal cells, MTT, 48 h treatment, means ± SEM of three independent experiments, read-out: IC50
[13] = SK-OV-3, SKOV-3, MTT, 48 h treatment, means ± SEM of three independent experiments, read-out: IC50
[14] = A549, MTT, 48 h treatment, means ± SEM of three independent experiments, read-out: IC50
[15] = HCT-116, HCT116, MTT, 48 h treatment, means ± SEM of three independent experiments, read-out: IC50
[16] = A-375, A375, MTT, 48 h treatment, means ± SEM of three independent experiments, read-out: IC50

In the case of `O=C(COc1ccc([N+](=O)[O-])c(F)c1)Nc1cccc(Cl)c1` [Compound 3a, N-(3-Chlorophenyl)-2-(3-fluoro-4-nitrophenoxy)acetamide], the IC50 [1, 10] is reported as over 40 µM, the IC50 [2, 11] is reported as over 40 µM and the IC50 [3, 12] is reported as over 40 µM. For the same compound, the MIC [4] was 16 µg/mL (≈ 49.3 µM), the IC50 [5, 13] was over 40 µM and the melting point was 150 to 151 °C. The IC50 [6, 14] was over 40 µM, the IC50 [7, 15] was over 40 µM and the IC50 [8, 16] was over 40 µM.

`O=C(COc1ccc([N+](=O)[O-])c(F)c1)Nc1ccc(Cl)c(Cl)c1` [Compound 3b, N-(3,4-Dichlorophenyl)-2-(3-fluoro-4-nitrophenoxy)acetamide] gave an MIC [4] of 32 µg/mL (≈ 89.1 µM) and a melting point of 175 to 176 °C.

In the case of `O=C(COc1ccc([N+](=O)[O-])c(F)c1)Nc1ccc(Br)cc1F` [Compound 3c, N-(4-Bromo-2-fluorophenyl)-2-(3-fluoro-4-nitrophenoxy)acetamide], the MIC [4] is reported as 32 µg/mL (≈ 82.7 µM) and the melting point is reported as 160 to 162 °C.

`O=C(COc1ccc([N+](=O)[O-])c(F)c1)Nc1ccc(Cl)c(C(F)(F)F)c1` [Compound 3d, N-(4-Chloro-3-(trifluoromethyl)phenyl)-2-(3-fluoro-4-nitrophenoxy)acetamide] gave an IC50 [1, 10] of over 40 µM, an IC50 [2, 11] of 33.2 ± 2.5 µM and an IC50 [3, 12] of over 40 µM. For the same compound, the MIC [4] was 16 µg/mL (≈ 40.7 µM), the IC50 [5, 13] was over 40 µM and the melting point was 163 to 164 °C. It also gave an IC50 [6, 14] of over 40 µM, an IC50 [7, 15] of over 40 µM and an IC50 [8, 16] of over 40 µM.

`O=C(COc1ccc([N+](=O)[O-])c(F)c1)Nc1cccc([N+](=O)[O-])c1` [Compound 3e, 2-(3-Fluoro-4-nitrophenoxy)-N-(3-nitrophenyl)acetamide] showed an MIC [4] of 64 µg/mL (≈ 191 µM) and a melting point of 199 to 201 °C.

In the case of `COc1ccc(NC(=O)COc2ccc([N+](=O)[O-])c(F)c2)c(OC)c1` [Compound 3f, N-(2,4-Dimethoxyphenyl)-2-(3-fluoro-4-nitrophenoxy)acetamide], the MIC [4] is reported as 64 µg/mL (≈ 183 µM) and the melting point is reported as 174 to 175 °C.

With `O=C(COc1ccc([N+](=O)[O-])c(F)c1)Nc1cc(C(F)(F)F)cc(C(F)(F)F)c1` [Compound 3g, N-(3,5-bis(Trifluoromethyl)phenyl)-2-(3-fluoro-4-nitrophenoxy)acetamide] the IC50 [1, 10] was 21.6 ± 1.1 µM, the IC50 [2, 11] was 20 ± 1.1 µM and the IC50 [3, 12] was over 40 µM. For the same compound, the MIC [4] was 8 µg/mL (≈ 18.8 µM), the IC50 [5, 13] was 12.2 ± 1.3 µM and the melting point was 168 to 169 °C. The IC50 [6, 14] was 38.2 ± 1.5 µM, the IC50 [7, 15] was 33.8 ± 2 µM and the IC50 [8, 16] was 22.6 ± 0.9 µM.

With `O=C(COc1ccc([N+](=O)[O-])c(F)c1)Nc1ccc(F)c(Cl)c1` [Compound 3h, N-(3-Chloro-4-fluorophenyl)-2-(3-fluoro-4-nitrophenoxy)acetamide] the IC50 [1, 10] was over 40 µM, the IC50 [2, 11] was over 40 µM and the IC50 [3, 12] was over 40 µM. It also gave an MIC [4] of 16 µg/mL (≈ 46.7 µM), an IC50 [5, 13] of over 40 µM and a melting point of 166 to 167 °C. The IC50 [6, 14] was over 40 µM, the IC50 [7, 15] was over 40 µM and the IC50 [8, 16] was over 40 µM.

With `O=C(COc1ccc([N+](=O)[O-])c(F)c1)Nc1ccc(Br)cc1` [Compound 3i, N-(4-Bromophenyl)-2-(3-fluoro-4-nitrophenoxy)acetamide] the MIC [4] was 32 µg/mL (≈ 86.7 µM) and the melting point was 166 to 167 °C.

In the case of `N#Cc1ccccc1NC(=O)COc1ccc([N+](=O)[O-])c(F)c1` [Compound 3j, N-(2-Cyanophenyl)-2-(3-fluoro-4-nitrophenoxy)acetamide], the MIC [4] is reported as 64 µg/mL (≈ 203 µM) and the melting point is reported as 172 to 174 °C.

Compound `O=C(COc1ccc([N+](=O)[O-])c(F)c1)Nc1ccccc1C(F)(F)F` [Compound 3k, 2-(3-Fluoro-4-nitrophenoxy)-N-(2-(trifluoromethyl)phenyl)acetamide] has an MIC [4] of 64 µg/mL (≈ 179 µM) and a melting point of 146 to 147 °C.

Compound `O=C(COc1ccc([N+](=O)[O-])c(F)c1)Nc1ccc(OC(F)(F)F)cc1` [Compound 3l, 2-(3-Fluoro-4-nitrophenoxy)-N-(4-(trifluoromethoxy)phenyl)acetamide] has an MIC [4] of 32 µg/mL (≈ 85.5 µM) and a melting point of 146 to 148 °C.

Compound `O=C(COc1ccc([N+](=O)[O-])c(F)c1)Nc1ccccc1[N+](=O)[O-]` [Compound 3m, 2-(3-Fluoro-4-nitrophenoxy)-N-(2-nitrophenyl)acetamide] has an IC50 ([1]; HepG2, 48 h) of over 40 µM, an IC50 ([2]; HeLa, 48 h) of over 40 µM and an IC50 ([3]; Vero, 48 h) of over 40 µM. For the same compound, the “safety profile in a vero cell line” value ([3]; MTT assay, result in words) was “good safety profile”, the MIC [4] was 4 µg/mL (≈ 11.9 µM) and the IC50 ([5]; SK-OV-3, 48 h) was over 40 µM. The IC50 ([9]; one bound stated for all six cell lines, read-out: IC50 against the tested six different cell lines) was over 40 µM, the “inhibitory effects against six different tumor cell lines” value ([9]; result in words) was “no inhibitory effects” and the “safety profile / toxicity in six different cell lines” value ([9]; result in words) was “good safety profile”. For the same compound, the melting point was 201 to 202 °C, the IC50 ([6]; A549, 48 h) was over 40 µM and the IC50 ([7]; HCT-116, 48 h) was over 40 µM. The IC50 ([8]; A-375, 48 h) was over 40 µM.

Work on `O=C(COc1ccc([N+](=O)[O-])c(F)c1)Nc1ccc(Br)cc1Cl` [Compound 3n, N-(4-Bromo-2-chlorophenyl)-2-(3-fluoro-4-nitrophenoxy)acetamide] yielded an MIC [4] of 32 µg/mL (≈ 79.3 µM) and a melting point of 173 to 175 °C.

Compound `O=C(COc1ccc([N+](=O)[O-])c(F)c1)Nc1ccc(C(F)(F)F)cc1` [Compound 3o, 2-(3-Fluoro-4-nitrophenoxy)-N-(4-(trifluoromethyl)phenyl)acetamide] has an IC50 [1, 10] of over 40 µM, an IC50 [2, 11] of 33.8 ± 1.7 µM and an IC50 [3, 12] of over 40 µM. It also gave an MIC [4] of 16 µg/mL (≈ 44.7 µM), an IC50 [5, 13] of 28.6 ± 2.3 µM and a melting point of 173 to 175 °C. The IC50 [6, 14] was over 40 µM, the IC50 [7, 15] was over 40 µM and the IC50 [8, 16] was 28.3 ± 1.2 µM.

`Cc1ccc([N+](=O)[O-])cc1NC(=O)COc1ccc([N+](=O)[O-])c(F)c1` [Compound 3p, 2-(3-Fluoro-4-nitrophenoxy)-N-(2-methyl-5-nitrophenyl)acetamide] gave an MIC [4] of 64 µg/mL (≈ 183 µM) and a melting point of 211 to 213 °C.

`COC(=O)COc1ccc(NC(=O)COc2ccc(C)cc2C)cc1` [I, methyl 2-(4-(2-(2,4-dimethylphenoxy)acetamido)phenoxy)acetate] gave an MIC [4] of 4 µg/mL (≈ 11.6 µM).

`NNC(=O)c1ccncc1` [Isoniazide] showed an MIC [4] of 0.0625 µg/mL (≈ 0.456 µM).

From publication PMC6268079, “Synthesis and Biological Evaluation of 2-(3-Fluoro-4-nitro phenoxy)-N-phenylacetamide Derivatives as Novel Potential Affordable Antitubercular Agents” (Molecules, 2012)
